Experimental data published in patent publication US8450332B2, “LIMK2 inhibitors, compositions comprising them, and methods of their use” (Lexicon Pharmaceuticals, Inc., priority 2008, dated 2013).

What follows are molecules tested against T1, LIMK2 (Homo sapiens, UniProt P53671) (assay: In vitro LIMK2 inhibition assay (33P incorporation into myelin basic protein flash plates)).
T1 construct: His tag (histidine-tagged; pFastBacHT vector); made in house; host or cells: Sf9 insect cells (BAC-to-BAC baculovirus system)
T1 sequence (P53671 whole entry): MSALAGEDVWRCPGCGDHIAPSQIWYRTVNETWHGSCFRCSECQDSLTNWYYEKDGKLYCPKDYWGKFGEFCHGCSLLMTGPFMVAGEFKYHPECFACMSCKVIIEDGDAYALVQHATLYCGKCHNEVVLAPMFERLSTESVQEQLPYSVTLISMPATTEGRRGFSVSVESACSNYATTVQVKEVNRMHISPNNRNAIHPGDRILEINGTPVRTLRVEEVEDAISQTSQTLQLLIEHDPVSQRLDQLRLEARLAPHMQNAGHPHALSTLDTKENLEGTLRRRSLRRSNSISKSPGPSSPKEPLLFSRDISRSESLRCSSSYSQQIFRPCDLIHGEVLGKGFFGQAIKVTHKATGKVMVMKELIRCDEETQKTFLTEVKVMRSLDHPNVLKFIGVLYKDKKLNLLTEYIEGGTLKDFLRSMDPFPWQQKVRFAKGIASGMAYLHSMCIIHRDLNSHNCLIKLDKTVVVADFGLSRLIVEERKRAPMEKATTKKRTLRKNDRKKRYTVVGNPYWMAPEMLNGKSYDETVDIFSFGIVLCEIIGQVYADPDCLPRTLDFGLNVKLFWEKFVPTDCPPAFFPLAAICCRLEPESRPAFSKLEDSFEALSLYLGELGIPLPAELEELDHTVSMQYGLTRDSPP
Format: biochemical
Experimental: Using the procedures described herein and methods known in the art, the additional compounds listed below in Table 1 were prepared. The LIMK2 IC50 data that is provided below for some of the compounds was determined using the assay described in Example 32.
An in vitro assay used to identify LIMK2 inhibitors was developed. The analytical readout was the incorporation of ^33P from ATP substrate into immobilized myelin basic protein coated flash plates (Perkin Elmer Biosciences), which were counted on a scintillation counter equipped with a plate reader (TopCount, Packard Bioscience, Meriden, Conn.). Using 384 well flat MBP flashplates, total assay volume was 50 μl. The HTS program utilized a Biomek FX for dilution.
For each assay, the ingredients and conditions were as follows: 200 ng of enzyme was incubated in assay buffer (1× assay buffer contains 30 mM HEPES (pH 8.0), 5 mM DTT, and 10 mM MgCl2), 10 μM ATP, 0.2 μCi [gamma-^33P]-ATP and 10 μM of potential inhibitory compound. The reaction was incubated at room temperature for 60 minutes, washed 3 times with 75 μl of stop/wash buffer (1× stop/was buffer contains 50 mM EDTA and 20 mM Tris (pH 7.4)), and then the plates were read on the scintillation counter. Different concentrations of staurosporine (400 nM, 200 nM, 100 nM and 50 nM; purchased from BIOMOL (Plymouth Meeting, Pa.)) were used as controls on each plate.
With `Cc1c[nH]c2ncnc(N3CCC(CCN4CCOCC4)(C(=O)Nc4cccc(OC(=O)N(C)C)c4)CC3)c12` [3-(1-(5-methyl-7H-pyrrolo[2,3-d]pyrimidin-4-yl)-4-(2-morpholinoethyl)piperidine-4-carboxamido)phenyl dimethylcarbamate] the IC50 was < 250 nM. In the case of `Cc1c[nH]c2ncnc(N3CCC(C(=O)Nc4cccc(OC(=O)N(C)C)c4)(c4nn[nH]n4)CC3)c12` [3-(1-(5-methyl-7H-pyrrolo[2,3-d]pyrimidin-4-yl)-4-(2H-tetrazol-5-yl)piperidine-4-carboxamido)phenyl dimethylcarbamate], the IC50 is reported as < 250 nM. In the case of `Cc1c[nH]c2ncnc(N3CCC(CNC(=O)N4CCOCC4)(C(=O)Nc4cccc(OC(=O)N(C)C)c4)CC3)c12` [3-(1-(5-methyl-7H-pyrrolo[2,3-d]pyrimidin-4-yl)-4-((morpholine-4-carboxamido)methyl)piperidine-4-carboxamido)phenyl dimethylcarbamate], the IC50 is reported as < 250 nM. With `Cc1c[nH]c2ncnc(N3CCC(CNS(N)(=O)=O)(C(=O)Nc4cccc(OC(=O)N(C)C)c4)CC3)c12` [3-(1-(5-methyl-7H-pyrrolo[2,3-d]pyrimidin-4-yl)-4-((sulfamoylamino)methyl)piperidine-4-carboxamido)phenyl dimethylcarbamate] the IC50 was < 250 nM. With `Cc1c[nH]c2ncnc(N3CCC(CNS(C)(=O)=O)(C(=O)Nc4cccc(OC(=O)N(C)C)c4)CC3)c12` [3-(1-(5-methyl-7H-pyrrolo[2,3-d]pyrimidin-4-yl)-4-(methylsulfonamidomethyl)piperidine-4-carboxamido)phenyl dimethylcarbamate] the IC50 was < 250 nM. With `Cc1c[nH]c2ncnc(N3CCC(CN4CCOCC4)(C(=O)Nc4cccc(OC(=O)N(C)C)c4)CC3)c12` [3-(1-(5-methyl-7H-pyrrolo[2,3-d]pyrimidin-4-yl)-4-(morpholinomethyl)piperidine-4-carboxamido)phenyl dimethylcarbamate] the IC50 was < 250 nM. With `Cc1c[nH]c2ncnc(N3CCC(CNC(N)=O)(C(=O)Nc4cccc(OC(=O)N(C)C)c4)CC3)c12` [3-(1-(5-methyl-7H-pyrrolo[2,3-d]pyrimidin-4-yl)-4-(ureidomethyl)piperidine-4-carboxamido)phenyl dimethylcarbamate] the IC50 was < 250 nM. In the case of `CCCC1(C(=O)Nc2cccc(OC(=O)N(C)C)c2)CCN(c2ncnc3[nH]cc(C)c23)CC1` [3-(1-(5-methyl-7H-pyrrolo[2,3-d]pyrimidin-4-yl)-4-propylpiperidine-4-carboxamido)phenyl dimethylcarbamate], the IC50 is reported as < 250 nM. With `Cc1c[nH]c2ncnc(N3CCC(NCCOCc4ccccc4)(C(=O)Nc4cccc(OC(=O)N(C)C)c4)CC3)c12` [3-(4-(2-(benzyloxy)ethylamino)-1-(5-methyl-7H-pyrrolo[2,3-d]pyrimidin-4-yl)piperidine-4-carboxamido)phenyl dimethylcarbamate] the IC50 was < 250 nM. With `Cc1c[nH]c2ncnc(N3CCC(NCCNC(=O)OC(C)(C)C)(C(=O)Nc4cccc(OC(=O)N(C)C)c4)CC3)c12` [3-(4-(2-(tert-butoxycarbonylamino)ethylamino)-1-(5-methyl-7H-pyrrolo[2,3-d]pyrimidin-4-yl)piperidine-4-carboxamido)phenyl dimethylcarbamate] the IC50 was < 250 nM. `Cc1c[nH]c2ncnc(N3CCC(NCCN)(C(=O)Nc4cccc(OC(=O)N(C)C)c4)CC3)c12` [3-(4-(2-aminoethylamino)-1-(5-methyl-7H-pyrrolo[2,3-d]pyrimidin-4-yl)piperidine-4-carboxamido)phenyl dimethylcarbamate] was tested, and the IC50 was < 250 nM. For `Cc1c[nH]c2ncnc(N3CCC(NCCO)(C(=O)Nc4cccc(OC(=O)N(C)C)c4)CC3)c12` [3-(4-(2-hydroxyethylamino)-1-(5-methyl-7H-pyrrolo[2,3-d]pyrimidin-4-yl)piperidine-4-carboxamido)phenyl dimethylcarbamate], the IC50 was < 250 nM. In the case of `Cc1c[nH]c2ncnc(N3CCC(CNC(=O)C4(N)CC4)(C(=O)Nc4cccc(OC(=O)N(C)C)c4)CC3)c12` [3-(4-((1-aminocyclopropanecarboxamido)methyl)-1-(5-methyl-7H-pyrrolo[2,3-d]pyrimidin-4-yl)piperidine-4-carboxamido)phenyl dimethylcarbamate], the IC50 is reported as < 250 nM.
